According to EP0193355B1, “Analgesic composition” (ELI LILLY AND COMPANY, priority 1985, dated 1986):
Counter-ions that a name gives are not always drawn.

System: Mouse Writhing
Assay: mouse writhing assay (acetic acid-induced writhing)
Type: in vivo, albino male mice
Settings: for Percent Inhibition of Writhing: Codeine Sulfate 10 mg/kg + Saline, oral; for Codeine Sulfate Induced Inhibition of Mouse Writhing ED₅₀: codeine sulfate subcutaneous, writhing assessed 30 minutes later
Excerpt: Writhing, which is characterized by contraction of the abdominal musculature, extension of the hindlegs, and rotation of the trunk, was induced in albino male mice. The extent to which writhing is reduced following administration of a test compound is an indication of the analgesic activity of that compound.
Mice, weighing 18-24 grams, were fasted overnight and given the test compounds by gavage or subcutaneously. Writhing was then induced by the intraperitoneal administration of acetic acid (0.55 to 0.60 percent). Each treatment group consisted of five mice. The total number of writhes for the treatment group was determined during a 10-minute observation period starting five minutes after acetic acid administration. […] The results in the mouse writhing assay are presented either as the effective dose in mg/kg of the respective test compound required to inhibit induced writhing in the test animals by fifty percent (ED₅₀), or as the percent inhibition of writhing at the particular dose of the test compound administered.

Compound	Percent Inhibition of Writhing (30 minutes after administration)	Percent Inhibition of Writhing (60 minutes after administration)	Percent Inhibition of Writhing (120 minutes after administration)	Percent Inhibition of Writhing (180 minutes after administration)	Percent Inhibition of Writhing (240 minutes after administration)	Percent Inhibition of Mouse Writhing (Codeine Sulfate 10 mg/kg oral, Fluoxetine Hydrochloride 0 mg/kg, writhing assessed 60 minutes later)	inhibition at 10 mg/kg (Mus musculus, 1 h, Codeine Sulfate 10 mg/kg oral, Fluoxetine Hydrochloride 0 mg/kg, writhing assessed 60 minutes later, read-out: Percent Inhibition of Mouse Writhing)	Codeine Sulfate Inhibition of Mouse Writhing ED₅₀ (codeine sulfate oral, alone (Fluoxetine Hydrochloride 0), writhing assessed 60 minutes later)	Codeine Sulfate Inhibition of Mouse Writhing ED₅₀ (codeine sulfate oral, simultaneously with Fluoxetine Hydrochloride 20 mg/kg oral, writhing assessed 60 minutes later)	Codeine Sulfate Induced Inhibition of Mouse Writhing ED₅₀ (alone (Fluoxetine Hydrochloride 0 mg/kg s.c.))	Codeine Sulfate Induced Inhibition of Mouse Writhing ED₅₀ (simultaneously with Fluoxetine Hydrochloride 20 mg/kg s.c.)	Codeine Sulfate Inhibition of Mouse Writhing ED₅₀ (pretreatment Fluoxetine Hydrochloride (20 mg/kg) oral three hours before, codeine sulfate oral 15 minutes prior to assessment of writhing)	Codeine Sulfate Inhibition of Mouse Writhing ED₅₀ (pretreatment Saline oral three hours before, codeine sulfate oral 15 minutes prior to assessment of writhing)	ED₅₀ of codeine sulfate alone relative to the amount needed when 20 mg/kg of fluoxetine hydrochloride was concomitantly administered (subcutaneous, 30 minutes prior to the assessment of mouse writhing)	analgesic activity (fluoxetine hydrochloride alone, doses up to 160 mg/kg, 30-180 minutes before writhing was induced)
COc1ccc2c3c1O[C@H]1[C@@H](O)C=C[C@H]4[C@@H](C2)N(C)CC[C@@]341 [Codeine Sulfate, codeine sulfate]	40%	38%	37%	35%	22%	no inhibition	0%	27.0 mg/kg	15.4 mg/kg	9.8 mg/kg	2.8 mg/kg	9.4 mg/kg	18.6 mg/kg	3.5 times	–
CNCCC(Oc1ccc(C(F)(F)F)cc1)c1ccccc1 (stereo not drawn) [fluoxetine hydrochloride, 3-(4-trifluoromethylphenoxy)-N-methyl-3-phenylpropylamine]	–	–	–	–	–	–	–	–	–	–	–	–	–	–	devoid of analgesic activity
